Assay results published in patent publication US20250000835A1, “SYNERGIES OF 1- BETA-CARYOPHYLLENE, CANNABIDIOL AND TRIBUTYRIN; 2- RETINYL PALMITATE, BETA-CARYOPHYLLENE AND CANNABIDIOL; 3- RETINYL PALMITATE AND BETA-CARYOPHYLLENE IN CONTROLING INFLAMMATION, METABOLIC HEALTH, INSULIN SENSITIVITY/ GLYCEMIC - GLUCOSE UPTAKE & MANAGEMENT, AND FATTY LIVER/ NAFLD” (FLG Sciences, LLC, priority 2022, published 2025).

Columns and labels:
Type in all cases: cell-based
phosphorylated p65/NF-κB = test: Inflammatory signaling (phosphorylated NF-kB) by Western blotting, C2C12 muscle cells; conditions: vs DMSO control
Protocol: (§1) There were two different treatment experiments including: Cells treated with compounds 1-5 above for 3 hours; Cells treated with compounds 1-5 above for 12 hours with a concomitant TNF-alpha treatment (15 ng/mL); Cell treatments were performed using C2C12 myotubes (muscle cells), and AML-12 cells (liver cells).
(§2) There are also combination formulations, where the following combination formulations were tested: 6) Control or “vehicle” (DMSO only); 7) Vitamin A, or “VitA” (1.2 μM)+Beta-caryophyllene (100 ng/mL)+Tributyrin (10 μM); 8) Vitamin A, or “VitA” (1.2 μM)+Beta-caryophyllene (100 ng/mL)+CBD (95 ng/ml); 9) Beta-caryophyllene (100 ng/mL)+CBD (95 ng/mL)+Tributyrin (10 μM); 10) Vitamin A, or “VitA” (1.2 μM)+Beta-caryophyllene (100 ng/mL).
(§3) As with single ingredients, two different treatment experiments occurred with these combos including: Cells treated with compounds 1-5 above for 3 hours. Cells treated with compounds 1-5 above for 12 hours with a concomitant TNF-alpha treatment (15 ng/ml)
(§4) All cells were grown to confluence using cell-specific media and additives.
(§5) The day of treatment, culture media was spiked with the appropriate ingredients (these are termed “treatment media”)
(§6) After either the 3-h or 12-h treatments described above, treatment media was removed, cells were rinsed with 1× phosphate-buffered saline, and general cell lysis buffer (Tris-based with detergent) was used to lyse cells
(§7) Cells were scraped off the plate with a rubber policeman in the lysis buffer, the slurry was placed in 1.7 mL tubes, and lysates were frozen at −80° C. until the respective assays discussed below.
(§8) There are n=5-6 replicates per treatment condition.
SOD2, SOD1, phosphorylated p65/NF-κB, pro-caspase 1, and NLRP3 were assayed using Western blotting methods.

PPARγ [1] = biological target: T1, PPARγ (Mus musculus, UniProt P37238); test: PPARγ DNA binding activity, AML-12 liver cells; conditions: vs DMSO control
T1 construct: endogenous in cells; host or cells: C2C12 myotubes (muscle cells)
T1 sequence (P37238 1-505): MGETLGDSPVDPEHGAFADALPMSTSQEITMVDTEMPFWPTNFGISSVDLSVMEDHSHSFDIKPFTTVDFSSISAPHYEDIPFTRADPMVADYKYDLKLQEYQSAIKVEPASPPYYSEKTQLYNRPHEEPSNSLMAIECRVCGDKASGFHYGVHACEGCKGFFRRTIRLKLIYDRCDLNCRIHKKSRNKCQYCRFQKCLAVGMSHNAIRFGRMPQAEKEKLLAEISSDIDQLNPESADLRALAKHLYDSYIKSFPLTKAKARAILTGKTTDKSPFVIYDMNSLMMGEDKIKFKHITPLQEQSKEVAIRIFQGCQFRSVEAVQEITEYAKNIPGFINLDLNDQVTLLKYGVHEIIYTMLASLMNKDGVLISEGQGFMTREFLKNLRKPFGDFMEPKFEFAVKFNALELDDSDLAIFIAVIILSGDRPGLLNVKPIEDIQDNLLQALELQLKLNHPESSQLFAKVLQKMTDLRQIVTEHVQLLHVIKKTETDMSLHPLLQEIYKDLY
Protocol: as §1, §2, §3, §4, §5, §6, §7, §8
(§9) PPARγ DNA binding activity was assessed using a plate that was pre-coated with a PPAR-gamma consensus binding sequence. Thereafter, antibody-based methods were used to assess the amount of bound transcription factor, and data were normalized to total protein loaded in the assay.

SOD2 = SOD2 protein levels by Western blotting, C2C12 muscle cells; conditions: 3 h and 12 h with TNF-alpha, treatment not told apart in text, vs DMSO control
Protocol: as §1, §2, §3, §4
(§10) The day of treatment, culture media was spiked with the appropriate ingredients (these are termed “treatment media”) […]

[2] = tested on: C2C12 myotubes (muscle cells); test: Cellular glucose levels, colorimetric glucose oxidase assay, C2C12 muscle cells; conditions: 12 h treatment with TNF-alpha (15 ng/mL), vs DMSO control
Protocol: as §1, §2, §3, §4, §10

PPARγ [3] = biological target: T1, PPARγ; test: PPARγ DNA binding activity, C2C12 muscle cells; conditions: vs DMSO control
Protocol: as §1, §2, §3, §4, §5, §6, §7, §8, §9

AML-12 liver cells [4] = test: Cellular glucose levels, colorimetric glucose oxidase assay, AML-12 liver cells; conditions: 12 h treatment with TNF-alpha (15 ng/mL), vs DMSO control
Protocol: as §1, §2, §3, §4, §10

AML-12 liver cells [5] = test: Cellular antioxidant (AOx) capacity, Cu2+ ion conversion assay, AML-12 liver cells; conditions: 3 h treatment, vs DMSO control, CBD 95 ng/ml, VitA 1.2 μM, tributyrin 10 μM, beta-caryophyllene 100 ng/ml
Protocol: as §1, §2, §3, §4, §10
(§11) Total antioxidant capacity was assessed using a Cu2+ ion is conversion assay.

[6] = tested on: C2C12 myotubes (muscle cells); test: Cellular antioxidant (AOx) capacity, Cu2+ ion conversion assay, C2C12 muscle cells; conditions: vs DMSO control
Protocol: as §1, §2, §3, §4, §10, §11

[7] = 12 h treatment with TNF-alpha (15 ng/mL)

| Compound | NF-kB phosphorylation vs control (phosphorylated p65/NF-κB; [7]) | PPARγ DNA binding activity vs control (PPARγ [1]; 3 h treatment) | SOD2 protein levels vs control (SOD2) | Cellular glucose levels vs control [2] | PPARγ DNA binding activity vs control (PPARγ [3]; [7]) | Cellular glucose levels vs control (AML-12 liver cells [4]) | PPARγ DNA binding activity vs control (PPARγ [1]; [7]) | Cellular AOx capacity vs control (AML-12 liver cells [5]) | PPARγ DNA binding activity vs control (PPARγ [3]; 3 h treatment) | Cellular AOx capacity vs control ([6]; 3 h treatment, CBD 95 ng/ml, VitA 1.2 μM, tributyrin 10 μM, beta-caryophyllene 100 ng/ml) | NF-kB phosphorylation vs control (phosphorylated p65/NF-κB; 3 h treatment) | Cellular AOx capacity vs control [6, 7] |
| --- | --- | --- | --- | --- | --- | --- | --- | --- | --- | --- | --- | --- |
| C=C1CC/C=C(\C)CC[C@@H]2[C@@H]1CC2(C)C [BCP, beta-caryophyllene] | significant values in reducing NF-kB phosphorylation | significance values greater than control group | – | – | – | – | – | – | – | – | – | – |
| CCCC(=O)OCC(COC(=O)CCC)OC(=O)CCC [tributyrin, Tributyrin] | significant values in reducing NF-kB phosphorylation | significance values greater than control group | significance value less the control | increases cell glucose | values of greater significance than the control | increases cell glucose | significance value greater than control group | – | – | – | – | – |
| CCCCCCCCCCCCCCCC(=O)OC/C=C(C)/C=C/C=C(C)/C=C/C1=C(C)CCCC1(C)C [vitamin A, Retinyl palmitate] | – | significance values greater than control group | – | – | – | – | – | showed an antioxidant capacity | significance value greater than control group | expressed significance values | – | – |
| cannabidiol [CBD] | – | – | significance value less the control | – | values of greater significance than the control | – | – | expressed results with significance value | – | – | the only one with significant value among the ingredients | expressed significance value |
